Data published in BigSolDB 2.1.

NCC(CC(=O)O)c1ccc(Cl)cc1 (stereo not given)
solubility (mole fraction)
Settings	in ethanol	in isopropanol	in methanol	in n-propanol	in propylene glycol
293.2 K	3.25e-05	5.77e-05	0.000123	5.6e-05	0.000216
298.2 K	4.17e-05	6.36e-05	0.000131	6.26e-05	0.000271
303.2 K	4.87e-05	7.64e-05	0.00014	6.34e-05	0.000345
308.2 K	5.39e-05	8.09e-05	0.000147	7.82e-05	0.000424
313.2 K	6.09e-05	8.85e-05	0.000173	8.22e-05	0.000485
